Data reported in US8258145B2, “Method of treating brain cancer” (Myrexis, Inc., priority 2005, dated 2012).

Each compound was assayed on T-47D (assay: Caspase cascade activation (caspase activity ratio and potency), fluorogenic N-(Ac-DEVD)-N'-ethoxycarbonyl-R110 substrate). Settings: Homo sapiens, T47D; T-47D (24 hr).
Type: cell-based, Human
Method: Human breast cancer cell lines T-47D and DLD-1 were grown according to media component mixtures designated by American Type Culture Collection+10% FCS (Invitrogen Corporation), in a 5% CO2−95% humidity incubator at 37° C. T-47D and DLD-1 cells were maintained at a cell density between 50 and 80% confluency at a cell density of 0.1 to 0.6×10^6 cells/mL. Cells were harvested at 600×g and resuspended at 0.65×10^6 cells/mL into appropriate media+10% FCS. An aliquot of 22.5 μL of cells was added to a well of a 384-well microtiter plate containing 2.5 μL of a 10% DMSO in RPMI-1640 media solution containing 0.16 to 100 μM of (2-chloro-quinazolin-4-yl)-(4-methoxy-phenyl)-methyl-amine or other test compound (0.016 to 10 μM final). An aliquot of 22.5 μL of cells was added to a well of a 384-well microtiter plate containing 2.5 μL of a 10% DMSO in RPMI-1640 media solution without test compound as the control sample. […] […] The samples were mixed by agitation and incubated at room temperature. Using a fluorescent plate reader (Model SPECTRAfluor Plus, Tecan), an initial reading (T=0) was made approximately 1-2 min after addition of the substrate solution, employing excitation at 485 nm and emission at 530 nm, to determine the background fluorescence of the control sample. After the 3 h incubation, the samples were read for fluorescence as above (T=3 h).
The Relative Fluorescence Unit values (RFU) were used to calculate the sample readings as follows: RFU(T=3h)−Control RFU(T=0)=Net RFU(T=3h)
The activity of caspase cascade activation was determined by the ratio of the net RFU value for (2-chloro-quinazolin-4-yl)-(4-methoxy-phenyl)-methyl-amine or other test compounds to that of control samples. The EC50 (nM) was determined by a sigmoidal dose-response calculation (Prism 3.0, GraphPad Software Inc.).

Q: How did the EC50 turn out when `CNc1nc(N(C)c2ccc(N(C)C)cc2)c2ccccc2n1` [Example 47, (2-Methylamino-quinazolin-4-yl)-(4-dimethylaminophenyl)-methylamine] was run?
A: 29 nM

Same assay, conditions: T-47D (24 hr)

Q: Which “Caspase activity Ratio (net RFU of test compound to control)” value (shortened to “Caspase activity Ratio”) does the source give for `CSc1ccc(N(C)c2nc(C)nc3ccccc23)cc1` [Example 49, (4-Methylthio-phenyl)-(2-methyl-quinazolin-4-yl)-methylamine] here?
A: 7.5

Q: With `Cc1ccc(N(C)c2nc(Cl)nc3ccccc23)cc1` [Example 2, (2-Chloro-quinazolin-4-yl)-(4-methyl-phenyl)-methyl-amine] as the compound, how does the “Caspase activity Ratio” value read?
A: 6.7

Q: Which “Caspase activity Ratio” value does the source give for `COc1ccc(N(C)c2nc(C)nc3ccc(N(C)C)cc23)cc1` [Example 52, (6-Dimethylamino-2-methyl-quinazolin-4-yl)-(4-methoxy-phenyl)-methylamine] here?
A: 6.4

Q: How did the “Caspase activity Ratio” value turn out when `CCOc1ccc(N(C)c2nc(C)nc3ccccc23)cc1` [Example 36, (4-Ethoxy-phenyl)-(2-methyl-quinazolin-4-yl)-methyl-amine] was run?
A: 5.2

Q: Which “Caspase activity Ratio” value does the source give for `COc1ccc(N(C)c2nc(Cl)nc3cccc(Cl)c23)cc1` [Example 30, (2,5-Dichloro-quinazolin-4-yl)-(4-methoxy-phenyl)-methyl-amine] here?
A: 10.6

Q: `Cc1nc(N(C)c2ccc(N(C)C)cc2)c2cc([N+](=O)[O-])ccc2n1` [Example 44, (2-Methyl-6-nitroquinazolin-4-yl)-(4-dimethylaminophenyl)-methylamine] was tested. Which “Caspase activity Ratio” value did it give?
A: 2.6

Q: With `CN(c1ccc([N+](=O)[O-])cc1)c1nc(Cl)nc2ccccc12` [Example 54, (2-Chloro-quinazolin-4-yl)-(4-nitro-phenyl)-methyl-amine] as the compound, how does the “Caspase activity Ratio” value read?
A: 7.1

Q: How did the “Caspase activity Ratio” value turn out when `COc1ccc(N(C)c2nc(CCl)nc3ccccc23)cc1` [Example 22, (2-Chloromethyl-quinazolin-4-yl)-(4-methoxy-phenyl)-methyl-amine] was run?
A: 6.2

Q: `CC(=O)N(C)c1nc(N(C)c2ccc(N(C)C)cc2)c2ccccc2n1` [Example 48, [2-(N-Methyl-acetamido)-quinazolin-4-yl]-(4-dimethylaminophenyl)-methylamine] was tested. Which “Caspase activity Ratio” value did it give?
A: 2.4

Q: Which “Caspase activity Ratio” value does the source give for `Cc1nc(N(C)c2ccc(N(C)C)nc2)c2ccccc2n1` [Example 50, (2-Dimethylamino-pyridine-5-yl)-(2-methyl-quinazolin-4-yl)-methylamine] here?
A: 9.0

Q: `COc1ccc(N(C)c2nc(N(C)C)nc3ccccc23)cc1` [Example 38, (2-Dimethylamino-quinazolin-4-yl)-(4-methoxy-phenyl)-methyl-amine] was tested. Which “Caspase activity Ratio” value did it give?
A: 8.2

Q: `COc1cccc(N(C)c2nc(Cl)nc3ccccc23)c1OC` [Example 24, (2-Chloro-quinazolin-4-yl)-(2,3-dimethoxy-phenyl)-methyl-amine] was tested. Which “Caspase activity Ratio” value did it give?
A: 4.5

Q: With `CN(c1ccccc1)c1nc(Cl)nc2ccccc12` [Example 55, (2-Chloro-quinazolin-4-yl)-phenyl-methyl-amine] as the compound, how does the “Caspase activity Ratio” value read?
A: 6.7

Q: With `CNc1nc(N(C)c2ccc(N(C)C)cc2)c2ccccc2n1` [Example 47, (2-Methylamino-quinazolin-4-yl)-(4-dimethylaminophenyl)-methylamine] as the compound, how does the “Caspase activity Ratio” value read?
A: 3.9

Q: `Cc1nc(N(C)c2ccc(OC(C)C)cc2)c2ccccc2n1` [Example 27, (4-Isopropoxy-phenyl)-(2-methyl-quinazolin-4-yl)-methyl-amine] was tested. Which “Caspase activity Ratio” value did it give?
A: 6.2

Q: Which “Caspase activity Ratio” value does the source give for `COc1ccc(N(C)c2nc(C)nc3cccc(OC)c23)cc1` [Example 31, (5-Methoxy-2-methyl-quinazolin-4-yl)-(4-methoxy-phenyl)-methyl-amine] here?
A: 8.3

Q: Which “Caspase activity Ratio” value does the source give for `COc1ccc(N(C)c2nc(C)nc3ccccc23)cc1F` [Example 26, (3-Fluoro-4-methoxy-phenyl)-(2-methyl-quinazolin-4-yl)-methyl-amine] here?
A: 7.6

Q: With `CN(C)c1ccc(N(C)c2nc(Cl)nc3ccccc23)cc1` [Example 45, (2-Chloro-quinazolin-4-yl)-(4-dimethylaminophenyl)-methylamine] as the compound, how does the “Caspase activity Ratio” value read?
A: 4.2

Q: For `COc1ccc(N(C)c2nc(NCc3ccccc3)nc3ccccc23)cc1` [Example 42, (2-Benzylamino-quinazolin-4-yl)-(4-methoxyphenyl)-methylamine], which “Caspase activity Ratio” value is on record?
A: 8.2

Q: With `COc1ccc(N(C)c2nc(N(C)C)nc3ccc([N+](=O)[O-])cc23)cc1` [Example 46, (2-Dimethylamino-6-nitroquinazolin-4-yl)-(4-methoxyphenyl)-methylamine] as the compound, how does the “Caspase activity Ratio” value read?
A: 4.2

Q: For `COc1ccc(N(C)c2nc(SC)nc3ccccc23)cc1` [Example 37, (2-Methylthio-quinazolin-4-yl)-(4-methoxy-phenyl)-methyl-amine], which “Caspase activity Ratio” value is on record?
A: 5.2

Q: How did the “Caspase activity Ratio” value turn out when `COc1ccc(N(C)c2nc(N3CCOCC3)nc3ccccc23)cc1` [Example 6, (4-Methoxy-phenyl)-methyl-(2-morpholin-4-yl-quinazolin-4-yl)-amine] was run?
A: 5.7

Q: With `CN(c1ccc(OC(F)(F)F)cc1)c1nc(Cl)nc2ccccc12` [Example 4, (2-Chloro-quinazolin-4-yl)-(4-trifluoromethoxy-phenyl)-methyl-amine] as the compound, how does the “Caspase activity Ratio” value read?
A: 10.3

Q: For `Cc1nc(N(C)c2ccc(OC(F)F)cc2)c2ccccc2n1` [Example 25, (4-Difluoromethoxy-phenyl)-(2-methyl-quinazolin-4-yl)-methyl-amine], which “Caspase activity Ratio” value is on record?
A: 6.7

Q: For `COc1ccc(N(C)c2nc(C)nc3ccccc23)nc1` [Example 41, (5-Methoxy-pyridin-2-yl)-(2-methyl-quinazolin-4-yl)-methyl-amine], which “Caspase activity Ratio” value is on record?
A: 5.0

Q: How did the “Caspase activity Ratio” value turn out when `COc1ccc(N(C)c2nc(Cl)nc3ccccc23)cn1` [Example 7, (2-Chloro-quinazolin-4-yl)-(6-methoxy-pyridin-3-yl)-methyl-amine] was run?
A: 6.7

Same assay, conditions: T-47D (48 hr)

Q: With `COc1ccc(N(C)c2nc(Cl)nc3cc(C)ccc23)cc1` [Example 60, (2-Chloro-7-methyl-quinazolin-4-yl)-(4-methoxy-phenyl)-methyl-amine] as the compound, how does the “Caspase activity Ratio” value read?
A: 6.2

Q: How did the “Caspase activity Ratio” value turn out when `COc1ccc(N(C)c2nc(Cl)nc3cccc(C)c23)cc1` [Example 14, (2-Chloro-5-methyl-quinazolin-4-yl)-(4-methoxy-phenyl)-methyl-amine] was run?
A: 10.8

Q: With `CCCOc1ccc(N(C)c2nc(Cl)nc3ccccc23)cc1` [Example 20, (2-Chloro-quinazolin-4-yl)-(4-propoxy-phenyl)-methyl-amine] as the compound, how does the “Caspase activity Ratio” value read?
A: 11.3

Q: With `COc1cccc(N(C)c2nc(Cl)nc3ccccc23)c1` [Example 10, (2-Chloro-quinazolin-4-yl)-(3-methoxy-phenyl)-methyl-amine] as the compound, how does the “Caspase activity Ratio” value read?
A: 14.7

Q: `CN(c1ccc2c(c1)OCO2)c1nc(Cl)nc2ccccc12` [Example 18, (2-Chloro-quinazolin-4-yl)-(3,4-methylenedioxyphenyl)-methyl-amine] was tested. Which “Caspase activity Ratio” value did it give?
A: 12.5

Q: Which “Caspase activity Ratio” value does the source give for `COc1ccc(N(C)c2nc(CCl)nc3ccccc23)cc1` [Example 22, (2-Chloromethyl-quinazolin-4-yl)-(4-methoxy-phenyl)-methyl-amine] here?
A: 5.7

Q: With `COc1ccc(N(C)c2nc(Cl)nc3c(Cl)cccc23)cc1` [Example 29, (2,8-Dichloro-quinazolin-4-yl)-(4-methoxy-phenyl)-methyl-amine] as the compound, how does the “Caspase activity Ratio” value read?
A: 7.8

Q: Which “Caspase activity Ratio” value does the source give for `CCOc1ccc(N(C)c2nc(Cl)nc3ccccc23)cc1` [Example 32, (2-Chloro-quinazolin-4-yl)-(4-ethoxy-phenyl)-methylamine] here?
A: 9.0

Q: How did the “Caspase activity Ratio” value turn out when `COc1ccc(N(C)c2nc(NO)nc3ccccc23)cc1` [Example 5, N^2-Hydroxyl-N^4-(4-methoxy-phenyl)-N^4-methyl-quinazoline-2,4-diamine] was run?
A: 12.8

Q: How did the “Caspase activity Ratio” value turn out when `COc1ccc(N(C)c2nc(Cl)nc3cc(Cl)ccc23)cc1` [Example 59, (2,7-Dichloro-quinazolin-4-yl)-(4-methoxy-phenyl)-methyl-amine] was run?
A: 12.7

Q: With `COc1ccc(N(C)c2nc(Cl)nc3ccc(Cl)cc23)cc1` [Example 16, (2,6-Dichloro-quinazolin-4-yl)-(4-methoxy-phenyl)-methyl-amine] as the compound, how does the “Caspase activity Ratio” value read?
A: 6.5

Q: Which “Caspase activity Ratio” value does the source give for `COc1ccccc1N(C)c1nc(Cl)nc2ccccc12` [Example 57, (2-Chloro-quinazolin-4-yl)-(2-methoxy-phenyl)-methyl-amine] here?
A: 14.3

Q: With `COc1ccc(N(C)c2nc(N3CCOCC3)nc3ccccc23)cc1` [Example 6, (4-Methoxy-phenyl)-methyl-(2-morpholin-4-yl-quinazolin-4-yl)-amine] as the compound, how does the “Caspase activity Ratio” value read?
A: 11.5

Q: Which “Caspase activity Ratio” value does the source give for `COc1ccc(N(C)c2nc(Cl)nc3c(C)cccc23)cc1` [Example 15, (2-Chloro-8-methyl-quinazolin-4-yl)-(4-methoxy-phenyl)-methyl-amine] here?
A: 7.1

Q: For `COc1ccc(N(C)c2nc(Cl)nc3ccccc23)cc1OC` [Example 19, (2-Chloro-quinazolin-4-yl)-(3,4-dimethoxy-phenyl)-methyl-amine], which “Caspase activity Ratio” value is on record?
A: 13.1
